The source of these data is ChEMBL document CHEMBL1201862, “PubChem BioAssay data set” (2004).

Test systems include KM-20L2; XF498; LXFL 529; M19-MEL; DMS-114; HOP-18; SNB-78; RXF 631; DMS-273.
Common to all, as to assay: NCI anticancer screen, dose series, 48 h

Structures are written as SMILES.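 Results reflect a 48-hour exposure of cells in 96-well plates to compound at five concentrations. GI50: concentration for 50% inhibition of growth.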 Active and inactive are the calls of the source. Rule as the data show it: active = GI50 up to about 1.1 µM and inactive = higher.

In the case of `COc1cccc2c1C(=O)c1c(O)c3c(c(O)c1C2=O)C[C@@](O)(C(=O)CO)CC3OC1CC(N(C)CCOCC(OC(C)=O)OC(C)=O)C(O)C(C)O1` (stereo partly specified), the GI50 in the assay on KM-20L2, with XF498, in the assay with LXFL 529, with M19-MEL, in the assay on DMS-114 and in the assay on HOP-18 was > 0.01 µM (active) in each case.

Turning to `COc1cc(OC(=O)c2c(O)cc(O)c(O)c2C)cc(C)c1C(=O)Oc1cc(C)c(C(=O)O)c(O)c1`, the GI50 in the assay on KM-20L2, with XF498, in the assay with SNB-78, with LXFL 529, with M19-MEL and with DMS-114 was > 100 µM (inactive) each time. Also, the GI50 in the assay with RXF 631, in the assay with DMS-273 and in the assay on HOP-18 was > 100 µM (inactive) each time.

For the compound `C[C@]12CCCC(=O)C1(O)C[C@H](C(=O)O)CC2` (stereo partly specified), the GI50 with KM-20L2, with XF498, in the assay with LXFL 529, with M19-MEL, in the assay on DMS-114 and in the assay with RXF 631 was > 100 µM (inactive) each time. Further, the GI50 with DMS-273 and in the assay with HOP-18 was > 100 µM (inactive) each time.

As to `CC(O)(c1ccc(OCCC[N+](C)(C)C)cc1)C(C)(O)c1ccc(OCCC[N+](C)(C)C)cc1` (stereo unspecified), the GI50 in the assay on KM-20L2, in the assay with SNB-78, with LXFL 529, with DMS-114, in the assay with DMS-273 and with HOP-18 was > 100 µM (inactive) throughout.

For `CC(C)(C)c1cc(CCC(=O)Nc2ccc(Cl)cc2Cl)nc(N)n1`, the GI50 with KM-20L2, with SNB-78, in the assay with LXFL 529, in the assay on M19-MEL, in the assay with DMS-114 and in the assay on RXF 631 was > 100 µM (inactive) each time. Further, the GI50 in the assay on HOP-18 was > 100 µM (inactive).

As to `COc1cc(C2Oc3cc(-c4oc5cc(O)cc(O)c5c(=O)c4O)ccc3OC2CO)ccc1O` (stereo unspecified) [DEHYDROSILYLBIN], the GI50 in the assay on XF498 is 10.8 µM (inactive); with SNB-78 it was > 46.6 µM (inactive); with LXFL 529, 5.26 µM (inactive); in the assay on M19-MEL, 14.4 µM (inactive); in the assay with DMS-114 it was 9.86 µM (inactive); in the assay on DMS-273, 5.85 µM (inactive).

`Cc1nc(=O)n2c(C)n[nH]c2c1C(=O)Nc1cc(Cl)cc(Cl)c1`: the GI50 is 32.4 µM (inactive) with SNB-78, 29.8 µM (inactive) in the assay on LXFL 529 and 27.3 µM (inactive) in the assay with M19-MEL.

For `CCOC(=O)c1c2cccccc2n2c(=O)cc(C)nc12`, the GI50 in the assay with KM-20L2, in the assay on SNB-78, in the assay on LXFL 529 and with DMS-273 was > 100 µM (inactive) in each case.

As to `OCCC1(O)CCC(O)CC1` (stereo unspecified), the GI50 in the assay with SNB-78, with LXFL 529, in the assay on M19-MEL, in the assay with DMS-114, in the assay on DMS-273 and with HOP-18 was > 100 µM (inactive) in each case.

Take `COc1ccc(OC)c2c1C(=O)C1CC1(Br)C2=O` (stereo unspecified): the GI50 with KM-20L2, in the assay with XF498, in the assay on LXFL 529, with M19-MEL, in the assay with DMS-114 and in the assay with DMS-273 was > 100 µM (inactive) in each case.

For `Nc1nc(N)c(N=O)c(Nc2ccc(I)cc2)n1`, the GI50 is 23.2 µM (inactive) with KM-20L2; 18.2 µM (inactive) with SNB-78; 9.93 µM (inactive) in the assay with LXFL 529; 29.4 µM (inactive) in the assay on M19-MEL; 20.7 µM (inactive) in the assay with DMS-114; 16.5 µM (inactive) in the assay on DMS-273.

On to `O=C1CNS(=O)(=O)N1`, for which the GI50 in the assay with XF498, with SNB-78, in the assay with LXFL 529, in the assay with M19-MEL, in the assay on DMS-114 and with DMS-273 was > 100 µM (inactive) throughout.

With `CC1Nc2ccccc2NC1C=C(C#N)C#N` (stereo unspecified), the GI50 was 16.3 µM (inactive) with KM-20L2; 17.1 µM (inactive) in the assay on XF498; 15.3 µM (inactive) in the assay with SNB-78; 13 µM (inactive) in the assay with LXFL 529; 15 µM (inactive) in the assay on M19-MEL; 19.8 µM (inactive) with DMS-114. Further, the GI50 with RXF 631 was 11.9 µM (inactive); in the assay with DMS-273, 12.2 µM (inactive); with HOP-18, 20 µM (inactive).

In the case of `Cc1ccc(NC(=O)CC2SC(Nc3cccc(Cl)c3C)=NC2=O)cc1` (stereo unspecified), the GI50 was 70.8 µM (inactive) with KM-20L2; 46.2 µM (inactive) with XF498; 60.7 µM (inactive) in the assay with SNB-78; 32.4 µM (inactive) in the assay on LXFL 529; 71 µM (inactive) with M19-MEL; 29.9 µM (inactive) in the assay with DMS-114. In addition, the GI50 in the assay with RXF 631 and in the assay with DMS-273 was > 100 µM (inactive) throughout.

Regarding `O=C1C(O)=C(CCCc2ccc(Oc3ccccc3)cc2)C(=O)c2ccccc21`, the GI50 in the assay with KM-20L2 is 31.3 µM (inactive); with XF498, 9.02 µM (inactive); in the assay on SNB-78, 28.1 µM (inactive); in the assay with LXFL 529, 4.98 µM (inactive); with M19-MEL, 7.13 µM (inactive); in the assay with DMS-114, 4.73 µM (inactive). The GI50 with DMS-273 was 3.89 µM (inactive).

Take `Cc1cccc(C)c1NC(=O)C(C#N)C1=C(Cl)C(=O)c2ccccc2C1=O` (stereo unspecified): the GI50 with KM-20L2 is 24.1 µM (inactive); in the assay on XF498, 15.5 µM (inactive); in the assay on SNB-78, 23.4 µM (inactive); with LXFL 529, 16.1 µM (inactive); with M19-MEL, 4.55 µM (inactive); in the assay on DMS-114, 15.3 µM (inactive). For the same compound, the GI50 with RXF 631 is 15.4 µM (inactive); in the assay on DMS-273, 30.5 µM (inactive); in the assay on HOP-18 it was 12.7 µM (inactive).

In the case of `c1ccc2c(c1)CCc1c(-c3ccncc3)n[nH]c1-2`, the GI50 in the assay with KM-20L2 is 23.6 µM (inactive); in the assay on XF498, 0.583 µM (active); in the assay on SNB-78, 29.6 µM (inactive); in the assay on LXFL 529, 23.7 µM (inactive); with M19-MEL, 21.4 µM (inactive); with DMS-114 it was 17.2 µM (inactive). Besides, the results for the GI50 in the assay on RXF 631 and with DMS-273 were > 10 µM (inactive) and 22.9 µM (inactive), respectively.

With `COc1cc2cc3c4c(cc(OC)c(OC)c4c2cc1OC)CCN3C(=O)N(C)C`, the GI50 in the assay with KM-20L2 is 58.2 µM (inactive); in the assay on SNB-78, > 100 µM (inactive); with LXFL 529 it was 77.4 µM (inactive); with M19-MEL it was > 100 µM (inactive); in the assay with DMS-114, > 100 µM (inactive); in the assay on DMS-273, 89.1 µM (inactive).

On to `Cn1c(=O)c(C2c3ccccc3Oc3c2c(=O)n(C)c2ccccc32)c(O)c2ccccc21` (stereo unspecified), for which the GI50 is 59 µM (inactive) in the assay with KM-20L2; 26.9 µM (inactive) in the assay with XF498; 53.3 µM (inactive) in the assay with SNB-78; 47.9 µM (inactive) in the assay with LXFL 529; > 100 µM (inactive) in the assay on M19-MEL; 49.1 µM (inactive) with DMS-114. Also, the GI50 was 58.2 µM (inactive) in the assay with RXF 631, 68.7 µM (inactive) in the assay with DMS-273 and > 100 µM (inactive) with HOP-18.

Regarding `O=C(CC(=O)c1ccccc1)C(=O)Nc1ccc(Cl)cc1`, the GI50 was > 100 µM (inactive) in the assay on KM-20L2; > 100 µM (inactive) with XF498; > 100 µM (inactive) in the assay on SNB-78; > 100 µM (inactive) in the assay with LXFL 529; > 40.4 µM (inactive) with DMS-114; > 56.5 µM (inactive) in the assay on DMS-273. For the same compound, the GI50 in the assay on HOP-18 was > 100 µM (inactive).

Turning to `N#CC1([N+](=O)[O-])C=C1c1ccccc1` (stereo unspecified), the GI50 is > 100 µM (inactive) in the assay on KM-20L2; 81.5 µM (inactive) with SNB-78; 32.1 µM (inactive) in the assay on LXFL 529; 56.1 µM (inactive) in the assay with M19-MEL; 48.6 µM (inactive) with DMS-114; > 100 µM (inactive) in the assay on RXF 631. Besides, the GI50 in the assay on DMS-273 is > 100 µM (inactive).

For `COc1ccccc1NC(=O)C1=C(C)NC(C)=C(C(=O)Nc2ccccc2OC)C1/C=C/c1ccccc1`, the GI50 was > 100 µM (inactive) in the assay on KM-20L2; 54.8 µM (inactive) in the assay on SNB-78; 84.9 µM (inactive) with LXFL 529; > 100 µM (inactive) in the assay with M19-MEL; 61.7 µM (inactive) with DMS-114; > 100 µM (inactive) in the assay with DMS-273. Moreover, in the assay on HOP-18, the GI50 is > 100 µM (inactive).

With `OC1(c2ccccc2)OC(C#Cc2ccccc2)(c2ccccc2)c2ccccc21` (stereo unspecified), the GI50 in the assay with KM-20L2 was 3.33 µM (inactive); with XF498, 7.26 µM (inactive); with SNB-78, 6.98 µM (inactive); in the assay with LXFL 529 it was 6.22 µM (inactive); in the assay on M19-MEL it was 3.23 µM (inactive); in the assay on DMS-114 it was 3.13 µM (inactive). For the same compound, the GI50 with RXF 631 is 3.13 µM (inactive); in the assay on DMS-273, 3.4 µM (inactive).

Consider `COc1cc(C2c3cc4c(cc3[C@@H](N(C)C)[C@H]3COC(=O)C23)OCO4)cc(OC)c1O` (stereo partly specified), for which the GI50 in the assay on KM-20L2 was 23.4 µM (inactive); in the assay with XF498 it was 45 µM (inactive); in the assay on LXFL 529, 35.2 µM (inactive); in the assay with RXF 631, 42.2 µM (inactive); in the assay on DMS-273, 32.5 µM (inactive).

As to `CC1CCC23COC(=O)C2C(O)CCC3C1(C)CC(O)c1ccoc1` (stereo unspecified), the GI50 in the assay on KM-20L2, in the assay with XF498, in the assay with SNB-78, with LXFL 529, in the assay with M19-MEL and in the assay on DMS-114 was > 100 µM (inactive) each time. The GI50 with HOP-18 was > 100 µM (inactive).

Turning to `O=C(CC(=O)N1N=C(n2ccc3ccccc32)CC1c1ccccc1)Nc1ccc(Cl)cc1` (stereo unspecified), the GI50 with KM-20L2, with SNB-78, with LXFL 529, in the assay on M19-MEL, in the assay with DMS-114 and in the assay with RXF 631 was > 100 µM (inactive) in each case. Also, the GI50 in the assay with DMS-273 and in the assay on HOP-18 was > 100 µM (inactive) each time.

With `COC(=O)C1=C(CO)C2C=CC1C2` (stereo unspecified), the GI50 in the assay on KM-20L2, in the assay with XF498, with SNB-78, in the assay on LXFL 529, in the assay on M19-MEL and with RXF 631 was > 100 µM (inactive) in each case. Moreover, the GI50 in the assay with DMS-273 and in the assay with HOP-18 was > 100 µM (inactive) each time.
